Laboratory results published in patent US20200069583A1, “IN SITU PHASE CHANGE GEL SUSTAINED-RELEASE SYSTEM FOR SMALL MOLECULE DRUG AND PREPARATION METHOD THEREOF” (SICHUAN UNIVERSITY, priority 2017, published 2020).
Where a name gives a salt, the structure may show the parent alone.

Legend:
[1] = Cmax of other small molecule drugs in plasma, preparation versus original drug solution (Experimental Example 7); type: in vivo; conditions: male SD rats, subcutaneous; for Cmax: Sprague-Dawley (SD), rat, sc; for Phospholipid Span sustained release preparation Cmax: drug in preparation made by prescription and method of Example 1
Procedure: In vivo experiments in animals were used to investigate the effects of other small molecule drugs on inhibiting burst release. […] The obtained phospholipid Span sustained release preparation and original drug solution of the other small molecule drugs (each drug was formulated with water, ethanol or DMSO for injection, depending on the specific solubility) were injected subcutaneously into male SD rats, whose blood was taken at regular intervals. The C. of the small molecule drugs in plasma was determined by high-performance liquid chromatography-mass spectrometry (LC-MS/MS), thereby investigating the effect on inhibiting burst release.

[2] = In vivo pharmacokinetics of 2,4-dinitrophenol preparations, subcutaneous (Experimental Example 4); design: species or system male SD rats
Procedure: The product of Example 1 was injected subcutaneously into male SD rats, whose blood was taken at regular intervals. The content of 2,4-dinitrophenol in plasma was determined by high-performance liquid chromatography-mass spectrometry (LC-MS/MS), thereby investigating the sustained release effect thereof.
200-220 g of SD rats were randomly divided into three groups, solution group (Test Example 4 in Experimental Example 1), phospholipid Span gel group (Example 1), and high-concentration phospholipid gel group (prepared according to patent CN102526753A). There were 6 rats in each group and they were injected subcutaneously at the dosage of 12.5 mg/kg. At the scheduled time point, blood was taken from the rat eye and placed in a heparin sodium anticoagulated test tube. After the sample was processed, the blood concentration was measured by LC-MS/MS injection.
The fomulation of the high-concentration phospholipid gel sustained release preparation (patent CN102526753A) is as follows: […]

[3] = In vivo pharmacokinetics of dabigatran etexilate preparations, subcutaneous (Experimental Example 5); conditions: male, Sprague-Dawley (SD), rat, plasma, sc, SD rats, solution 11.4 mg/kg, gels 80 mg/kg
Procedure: At the scheduled time point, blood was taken from the rat eye and placed in a heparin sodium anticoagulated test tube. After the sample was processed, the blood concentration was measured by LC-MS/MS.

[4] = Blood concentration of 2,4-dinitrophenol in rats after subcutaneous dosing, surfactant comparison (Experimental Example 1); conditions: Sprague-Dawley (SD), rat, in vivo, sc, 12.5 mg/kg 2,4-dinitrophenol, LC-MS/MS, surfactant 3.5 g varied
Procedure: The following test was carried out in accordance with the preparation method of Example 1, except that the Span in the prescription of Example 1 was replaced with glyceryl dioleate (Test Example 1), Tween (Test Example 2) and sucrose acetate isobutyrate (Test Example 3). At the same time, the original drug solution group was designed (Test Example 4, 50 mg of the drug was dissolved in 10 mL of phosphate buffer (pH=7.6), and a solution of the same concentration as in Example 1 was prepared).
200-220 g of SD rats were randomly divided into five groups, 6 rats in each group, and were administered subcutaneously with 12.5 mg/kg dosage of 2,4-dinitrophenol (Example 1, Test Example 1, Test Example 2, Test Example 3 and Test Example 4). At the scheduled time point, blood was taken from the rat eye and placed in a heparin sodium anticoagulated test tube. After the sample was processed, the blood concentration was measured by LC-MS/MS.

[5] = drug in preparation made by prescription and method of Example 1, read-out: Phospholipid Span sustained release preparation Cmax
[6] = original drug solution in water, ethanol or DMSO for injection
[7] = in vivo, drug in preparation made by prescription and method of Example 1, read-out: Phospholipid Span sustained release preparation Cmax

`CC(=O)Oc1ccccc1C(=O)O` [Aspirin] gave a Cmax [1, 5] of 14600 ± 3120 ng/mL.
With `NC(=O)N1c2ccccc2C=Cc2ccccc21` [Carbamazepine] the Cmax [1, 5] was 4460 ± 570 ng/mL.
`C[C@@H]1C[C@H]2[C@@H]3CCC4=CC(=O)C=C[C@]4(C)[C@@]3(F)[C@@H](O)C[C@]2(C)[C@@]1(O)C(=O)CO` [Dexamethasone] gave a Cmax ([1]; male, drug in preparation made by prescription and method of Example 1, read-out: Phospholipid Span sustained release preparation Cmax) of 130 ± 50 ng/mL and a Cmax ([1]; male, original drug solution in water, ethanol or DMSO for injection, read-out: Original drug Cmax) of 530 ± 120 ng/mL.
Work on `COc1cccc2c1C(=O)c1c(O)c3c(c(O)c1C2=O)C[C@@](O)(C(=O)CO)C[C@@H]3O[C@H]1C[C@H](N)[C@H](O)[C@H](C)O1` [Doxorubicin] yielded a Cmax [1, 5] of 30 ± 10 ng/mL.
For `C/C=C1\[C@H]2C=C(C)C[C@]1(N)c1ccc(=O)[nH]c1C2` [Huperzine A], the “Phospholipid Span sustained release preparation Cmax” value [1] was 1330 ± 220 ng/mL and the “Original drug Cmax” value [1, 6] was 13870 ± 2860 ng/mL.
With `NS(=O)(=O)c1cc2c(cc1C(F)(F)F)NCNS2(=O)=O` [Hydroflumethiazido] the “Phospholipid Span sustained release preparation Cmax” value [1] was 870 ± 520 ng/mL and the “Original drug Cmax” value [1, 6] was 5780 ± 2060 ng/mL.
With `CN(C)C(=N)N=C(N)N` [Metformin hydrochloride] the Cmax [1, 5] was 820 ± 90 ng/mL.
Molecule `COCCOC(=O)C1=C(C)NC(C)=C(C(=O)OC(C)C)C1c1cccc([N+](=O)[O-])c1` (stereo not shown) [Nimodipine] has a Cmax [1, 5] of 1510 ± 670 ng/mL.
Molecule `CCC1(c2ccccc2)C(=O)NC(=O)NC1=O` [Phenobarbital] has a Cmax [1, 7] of 2510 ± 680 ng/mL.
With `CCCCCCOC(=O)NC(=N)c1ccc(NCc2nc3cc(C(=O)N(CCC(=O)OCC)c4ccccn4)ccc3n2C)cc1` [Solution group, dabigatran etexilate] the “AUC (0→∞)” value ([2]; SD rats, subcutaneous, 12.5 mg/kg, 2,4-dinitrophenol) was 10.19 ± 1.11 mg·days/L, the AUC(0-t) [3] was 1970 ± 474 ng·h/mL and the Cmax [3] was 244 ± 31.5 ng/mL. For the same molecule, the Tmax [3] was 3.18 ± 0.21 h, the half-life [3] was 5.21 ± 0.83 h and the MRT last ([3]; read-out: MRT0-t) was 7.86 ± 1.14 h.
For `O=[N+]([O-])c1ccc(O)c([N+](=O)[O-])c1` [Test Example4, 2,4-dinitrophenol], the Cmax ([2]; male, Sprague-Dawley (SD), rat, in vivo, sc, 12.5 mg/kg, rats, subcutaneous, same dose, 2,4-dinitrophenol) was roughly 54500 ng/mL, the “Duration of drug release” value ([2]; rats, same dose, original drug group) was 24 h and the Cmax [4] was 54500 ng/mL.
With `Cn1c(=O)c2[nH]cnc2n(C)c1=O` [theophylline] the Cmax [1, 7] was 1540 ± 320 ng/mL.
